Common to all, as to format: functional
Assay [1] concerns Saccharomyces cerevisiae. The assay is described as follows: (§1) MMV: Growth assays were conducted using the prototrophic S. cerevisiae strain JHY222. Each MMV compound (0.1 mM) was tested in rich media containing dextrose as a carbon source (Yeast Extract, Peptone, Dextrose; YPD). The growth rate in the presence of each MMV compound was calculated as follows: (i) the first 10 OD readings were averaged and subtracted from all OD readings of the corresponding curve to set the baseline of the growth curve to zero, and (ii) the area under the curve (AUC) was then calculated as the sum of all OD readings. […] A relative growth value was calculated as follows: AUC(DRUG) - AUC(DMSO)/AUC(DMSO); where AUC(DMSO) represents growth measured in a DMSO control well that was on the same microtiter plate of the drug-treated culture.

Assay [2] concerns Saccharomyces cerevisiae. Described as §1, with “minimal” for “rich”, “Nitrogen Base,” for “Extract, Peptone,”, “YNBD).” for “YPD).”.
For assay [3], the system named is Saccharomyces cerevisiae. Described as §1, with “minimal” for “rich”, “ethanol and glycerol” for “dextrose”, “as” for “as a”, “sources” for “source”, “Nitrogen Base, Ethanol, Glycerol; YNBEG).” for “Extract, Peptone, Dextrose; YPD).”.

Here are results for 44 compounds from ChEMBL document CHEMBL3301546, “MMV Malaria Box yeast growth screening”.

For the compound `CCCCC(O)(c1ccc(Cl)cc1)C(CN1CCOCC1)c1ccc(Cl)cc1.Cl` (configuration not stated), the “Relative Growth” value is reported as 0.0402 with Saccharomyces cerevisiae [1], -0.1088 in the assay on Saccharomyces cerevisiae [2] and -0.0844 with Saccharomyces cerevisiae [3].
In the same order, the values of `OC(CNC1CCCC1)Cn1c2ccccc2c2ccccc21` (configuration not stated) are -0.0524, -0.142 and -0.0741.
As to `CCN1CCN(Cc2ccc(NC(=O)c3cc4ccc5cccnc5c4[nH]3)cc2)CC1`, the “Relative Growth” value in the assay with Saccharomyces cerevisiae [1] was 0.0075; in the assay with Saccharomyces cerevisiae [2] it was 0.0158; with Saccharomyces cerevisiae [3], -0.0693.
Take `CC(=O)c1sc(NC(=O)Nc2ccc(C)cc2C)nc1C`: the “Relative Growth” value in the assay with Saccharomyces cerevisiae [1] is -0.0731; in the assay on Saccharomyces cerevisiae [2], -0.0182; in the assay with Saccharomyces cerevisiae [3], 0.0857.
With `Cl.OC(CNCc1ccccc1)Cn1c2ccccc2c2ccccc21` (configuration not stated), the “Relative Growth” value is -0.0131 in the assay with Saccharomyces cerevisiae [1], 0.0554 in the assay with Saccharomyces cerevisiae [2] and 0.03 in the assay on Saccharomyces cerevisiae [3].
As for `COc1ccc2c(c1OC)C(=O)N1c3ccccc3N=C(c3ccc(C)cc3)CC21` (configuration not stated), the figures for the “Relative Growth” value in the assay with Saccharomyces cerevisiae [1], with Saccharomyces cerevisiae [2] and in the assay with Saccharomyces cerevisiae [3] were -0.0173, -1.0612 and -1.0982, respectively.
In the same order, the values of `O=C(NC(c1ccccc1)c1ccc2cccnc2c1O)c1ccccc1` (configuration not stated) are 0.0169, -0.0745 and -0.2626.
For the compound `OC1CCCCC1C1(NC(=S)Nc2ccccc2)CCCCC1` (configuration not stated), the entries for the “Relative Growth” value with Saccharomyces cerevisiae [1], with Saccharomyces cerevisiae [2] and in the assay with Saccharomyces cerevisiae [3] were 0.0255, -0.1203 and 0.0032, respectively.
In the case of `O=C(O)C(=O)O.Oc1ccccc1CN1CCN(C(c2ccccc2)c2ccccc2)CC1`, the “Relative Growth” value with Saccharomyces cerevisiae [1] was -0.1402; in the assay with Saccharomyces cerevisiae [2] it was 0.1461; in the assay with Saccharomyces cerevisiae [3], 0.0338.
In the same order, the values of `Cc1cc(Nc2ccc3ccccc3c2)n2ncnc2n1` are 0.0302, 0.0095 and -0.024.
Take `CCOC(=O)C1=C(c2ccccc2)N=c2sc(=Cc3cc(C)n(-c4ccc(F)cc4)c3C)c(=O)n2C1c1cccc(OC)c1OC` (configuration not stated): the “Relative Growth” value is reported as -0.0436 in the assay on Saccharomyces cerevisiae [1], 0.0967 in the assay on Saccharomyces cerevisiae [2] and 0.1067 in the assay on Saccharomyces cerevisiae [3].
Turning to `CCc1ccc(Nc2cc(C)c3ccc(O)cc3n2)cc1.Cl`, the figures for the “Relative Growth” value with Saccharomyces cerevisiae [1], with Saccharomyces cerevisiae [2] and in the assay on Saccharomyces cerevisiae [3] were -0.0071, 0.1514 and 0.0748, respectively.
As to `CCOc1ccc(N2C(N)=NC(N)=NC2(C)C)cc1.Cl`, the results for the “Relative Growth” value in the assay with Saccharomyces cerevisiae [1], in the assay on Saccharomyces cerevisiae [2] and in the assay with Saccharomyces cerevisiae [3] were -0.0058, -0.1178 and 0.0602, respectively.
In the same order, the values of `COc1ccc(C2c3ccc4ccccc4c3Oc3ncn(CCCn4ccnc4)c(=N)c32)cc1OC` (configuration not stated) are 0.015, -0.111 and 0.1296.
On to `COc1ccccc1CNC(=O)C1c2ccccc2C(=O)N(CC(C)C)C1c1cccs1` (configuration not stated), for which the “Relative Growth” value in the assay on Saccharomyces cerevisiae [1] is listed as -0.1327; in the assay on Saccharomyces cerevisiae [2] it was -0.0764; with Saccharomyces cerevisiae [3], -0.0424.
Turning to `O=C(Nc1ccc(-c2nc3cc4ccccc4cc3[nH]2)cc1)c1cccc(Br)c1`, the figures for the “Relative Growth” value with Saccharomyces cerevisiae [1], with Saccharomyces cerevisiae [2] and with Saccharomyces cerevisiae [3] were -0.1256, 0.0231 and 0.0139, respectively.
Regarding `FC(F)(F)c1cccc(CNC2CCN(CCc3ccccc3)CC2)c1`, the “Relative Growth” value with Saccharomyces cerevisiae [1] is listed as -0.0003; in the assay on Saccharomyces cerevisiae [2], -0.0056; in the assay with Saccharomyces cerevisiae [3], -0.3142.
In the case of `COc1cc(C(=O)Nc2ccc(-c3nc4ccccc4[nH]3)cc2)cc(OC)c1OC`, the figures for the “Relative Growth” value in the assay with Saccharomyces cerevisiae [1], in the assay with Saccharomyces cerevisiae [2] and in the assay on Saccharomyces cerevisiae [3] were -0.1004, -0.5664 and -0.2463, respectively.
Regarding `COC(=O)c1ccc(Cl)c2c1C1C=CCC1C(c1cccc3ccccc13)N2` (configuration not stated), the “Relative Growth” value is recorded as -0.0285 in the assay on Saccharomyces cerevisiae [1], 0.053 in the assay with Saccharomyces cerevisiae [2] and 0.0199 in the assay on Saccharomyces cerevisiae [3].
For the compound `O=C(CCc1ccco1)NC1CCN(CC2(c3ccc(Cl)cc3)CCC2)CC1`, the “Relative Growth” value was -0.0017 in the assay with Saccharomyces cerevisiae [1], 0.003 in the assay on Saccharomyces cerevisiae [2] and 0.0483 in the assay with Saccharomyces cerevisiae [3].
With `CCCCc1c(C)nc2c(OC)cccc2c1O`, the “Relative Growth” value in the assay on Saccharomyces cerevisiae [1] was -0.0392; in the assay on Saccharomyces cerevisiae [2], -0.0292; in the assay with Saccharomyces cerevisiae [3] it was 0.0348.
On to `COc1ccc(OC)c(C2C3=C(CC(C)(C)CC3=O)N(c3ccc(Cl)c(Cl)c3)C3=C2C(=O)CC(C)(C)C3)c1`, for which the “Relative Growth” value with Saccharomyces cerevisiae [1] is listed as -0.0143; in the assay with Saccharomyces cerevisiae [2], -0.0153; in the assay on Saccharomyces cerevisiae [3], -0.1129.
On to `CC(C)=CCN1CCC(C(=O)Nc2ccc(-c3nc4ccccc4[nH]3)cc2)CC1`, for which the “Relative Growth” value in the assay on Saccharomyces cerevisiae [1] is on record as -0.0484; with Saccharomyces cerevisiae [2] it was 0.0091; in the assay with Saccharomyces cerevisiae [3] it was 0.1138.
In the same order, the values of `O=C(Nc1ccc(CN2CCOCC2)cc1)c1ccc(-c2ccc(Br)cc2)o1` are -0.0599, -0.3783 and -0.1653.
Regarding `Cl.c1ccc2c(NCCCCCCNc3c4c(nc5ccccc35)CCCC4)c3c(nc2c1)CCCC3`, the “Relative Growth” value in the assay on Saccharomyces cerevisiae [1] is recorded as -0.0331; in the assay on Saccharomyces cerevisiae [2], -0.2454; in the assay with Saccharomyces cerevisiae [3] it was -0.2596.
As for `COc1ccc(N2CCN(C(CNC(=O)CC(C)(C)C)c3ccc4c(c3)OCO4)CC2)cc1` (configuration not stated), the “Relative Growth” value in the assay with Saccharomyces cerevisiae [1] was 0.0032; in the assay with Saccharomyces cerevisiae [2] it was -0.0787; in the assay with Saccharomyces cerevisiae [3], -0.1806.
In the same order, the values of `CCOc1cc(Br)c(C(C)NC(=O)c2cccc(OC)c2)cc1OCC` (configuration not stated) are 0.0654, -0.0511 and -0.5924.
In the same order, the values of `Cc1cc(C=C2SC(=Nc3ccccc3)N(C3CCCC3)C2=O)c(C)n1-c1ccc(Cl)cc1` are 0.0207, -0.1823 and -0.2078.
In the same order, the values of `O=C(NCC(c1ccsc1)N1CCCCCC1)c1ccc(C(F)(F)F)cc1` (configuration not stated) are -0.0232, 0.0719 and 0.0335.
In the case of `c1ccc(-c2ccc(-c3nc4ccccc4[nH]3)cc2)cc1`, the “Relative Growth” value with Saccharomyces cerevisiae [1] is reported as -0.0154; with Saccharomyces cerevisiae [2] it was -0.0469; in the assay with Saccharomyces cerevisiae [3], 0.0562.
With `CC1CCCCN1CCCNC(=O)c1ccc2c(c1)sc1nc(-c3ccc(F)cc3)cn12` (configuration not stated), the “Relative Growth” value is listed as 0.083 in the assay with Saccharomyces cerevisiae [1], 0.1056 in the assay with Saccharomyces cerevisiae [2] and -0.161 in the assay with Saccharomyces cerevisiae [3].
Take `COc1ccc(C(=O)Nc2ccc3nc(N4CCCCC4)cc(C)c3c2)cc1OC`: the “Relative Growth” value in the assay with Saccharomyces cerevisiae [1] is -0.0828; in the assay with Saccharomyces cerevisiae [2] it was -0.1419; in the assay with Saccharomyces cerevisiae [3], -0.4538.
As for `O=C(Nc1ccc(N2CCCCC2)c(Cl)c1)c1ccc(Br)o1`, the results for the “Relative Growth” value in the assay with Saccharomyces cerevisiae [1], in the assay on Saccharomyces cerevisiae [2] and in the assay on Saccharomyces cerevisiae [3] were -0.0318, -0.1788 and -0.1511, respectively.
In the same order, the values of `CCCn1c(=N)c(C(=O)NC2CCCCC2)cc2c(=O)n3cccc(C)c3nc21` are -0.0177, 0.1028 and 0.0799.
On to `CCN(CC)CCNc1ccnc2cc3ccccc3cc12.O=P(O)(O)O`, for which the “Relative Growth” value in the assay with Saccharomyces cerevisiae [1] was 0.0094; with Saccharomyces cerevisiae [2], -0.1052; in the assay with Saccharomyces cerevisiae [3], -0.0873.
As to `CCN(Cc1ccccc1)C1CCN(Cc2cc(Br)ccc2O)CC1.O=C(O)C(=O)O`, the “Relative Growth” value in the assay with Saccharomyces cerevisiae [1] is reported as -0.0428; with Saccharomyces cerevisiae [2], 0.0515; in the assay with Saccharomyces cerevisiae [3], 0.0185.
As to `Cc1[nH]c(-c2ccc(F)cc2)cc1C(=O)NC1CCN(Cc2ccccc2)CC1`, the “Relative Growth” value is 0.0962 in the assay with Saccharomyces cerevisiae [1], 0.023 in the assay on Saccharomyces cerevisiae [2] and 0.2181 with Saccharomyces cerevisiae [3].
With `Nc1ccc(-c2nc3cc(Cc4ccc5[nH]c(-c6ccc(N)cc6)nc5c4)ccc3[nH]2)cc1`, the results for the “Relative Growth” value with Saccharomyces cerevisiae [1], in the assay with Saccharomyces cerevisiae [2] and with Saccharomyces cerevisiae [3] were -0.9832, -0.0312 and -0.1364, respectively.
In the same order, the values of `Cc1ccccc1OCCSc1nc2ccc(NC(=O)c3cccs3)cc2s1` are -0.0038, -0.1829 and -0.9335.
Regarding `COc1ccc(-c2c(C)nn3c(N)c(C#N)cnc23)cc1OC`, the “Relative Growth” value with Saccharomyces cerevisiae [1] is on record as -0.0311; in the assay on Saccharomyces cerevisiae [2], -0.0079; in the assay with Saccharomyces cerevisiae [3], -0.7097.
As to `CCC(C)NCC(O)(c1ccc(Cl)cc1)c1ccc(Cl)cc1` (configuration not stated), the “Relative Growth” value with Saccharomyces cerevisiae [1] is on record as 0.0173; in the assay on Saccharomyces cerevisiae [2], 0.042; in the assay on Saccharomyces cerevisiae [3], -0.0906.
Regarding `COc1ccc(-c2cc(=O)oc3c4c(ccc23)OCN(Cc2ccc(F)cc2)C4)cc1`, the “Relative Growth” value in the assay with Saccharomyces cerevisiae [1] was 0.0536; in the assay with Saccharomyces cerevisiae [2], 0.0043; with Saccharomyces cerevisiae [3] it was -0.013.
Turning to `CCN(CC)CCCNc1ccnc2cc3ccccc3cc12`, the figures for the “Relative Growth” value with Saccharomyces cerevisiae [1], in the assay on Saccharomyces cerevisiae [2] and in the assay with Saccharomyces cerevisiae [3] were -0.9889, 0.0381 and 0.1561, respectively.
In the case of `CCOC(=O)C1=CN(C)C=C(C(=O)OCC)C1c1cc(Br)c(OCC)c(OC)c1`, the “Relative Growth” value in the assay on Saccharomyces cerevisiae [1] was -0.1817; in the assay on Saccharomyces cerevisiae [2] it was 0.2106; in the assay with Saccharomyces cerevisiae [3], -0.4757.
